Measured values published in patent US10106532B2, “Inhibitors of beta-hydroxylase for treatment of cancer” (MIDWESTERN UNIVERSITY, priority 2012, dated 2018).
“Also recorded” adds a separate entry of the source.

What was measured:
[1] = target: T1, ASPH (Homo sapiens, UniProt Q12797); assay: binding to ASPH by isothermal titration calorimetry
T1 sequence (Q12797 1-758): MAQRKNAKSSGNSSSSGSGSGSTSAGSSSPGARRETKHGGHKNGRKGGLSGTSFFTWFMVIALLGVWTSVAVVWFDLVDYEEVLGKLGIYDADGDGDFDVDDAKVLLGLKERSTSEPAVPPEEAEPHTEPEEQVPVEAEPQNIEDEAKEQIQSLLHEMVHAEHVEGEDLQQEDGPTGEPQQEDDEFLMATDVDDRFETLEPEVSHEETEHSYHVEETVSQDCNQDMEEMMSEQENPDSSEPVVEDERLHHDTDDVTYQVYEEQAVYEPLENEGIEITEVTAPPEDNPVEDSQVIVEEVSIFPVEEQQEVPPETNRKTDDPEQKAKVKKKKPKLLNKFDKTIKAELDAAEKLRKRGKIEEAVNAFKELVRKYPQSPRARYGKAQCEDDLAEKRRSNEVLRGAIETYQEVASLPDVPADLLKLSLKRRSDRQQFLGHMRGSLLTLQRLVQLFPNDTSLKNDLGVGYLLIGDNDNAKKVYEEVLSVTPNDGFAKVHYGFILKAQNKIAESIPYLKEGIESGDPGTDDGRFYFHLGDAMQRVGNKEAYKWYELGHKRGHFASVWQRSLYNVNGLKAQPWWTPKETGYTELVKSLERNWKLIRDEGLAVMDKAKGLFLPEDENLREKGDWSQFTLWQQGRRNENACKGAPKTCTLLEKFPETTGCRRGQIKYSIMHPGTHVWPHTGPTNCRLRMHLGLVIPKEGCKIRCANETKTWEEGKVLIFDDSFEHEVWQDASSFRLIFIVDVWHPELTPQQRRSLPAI
Description: In the second step arylhydroxytetronimide was sulfonylated with phenylmethansulfonyl chloride in dry tetrahydrofuran to yield compounds of formula 1 (shown below). Compounds were characterized by 1H and 13C nuclear magnetic resonance, high resolution mass spectroscopy, high performance liquid chromatography, infra-red spectroscopy, melting point, elemental analysis and binding to ASPH by isothermal titration calorimetry.
Candidate parent compounds were selected as inhibitors for β-hydroxylase activity based on crystal structure of the catalytic site in the C-terminal region of ASPH and computer assisted drug design.

[2] = tested on: FOCUS cells; assay: MTT assay (cell proliferation, metabolic activity); type: cell-based, human; conditions: micromolar concentrations
Protocol: (§1) A MTT assay was performed to evaluate the effect of MO-1-1100 on cell proliferation and viability. MTT is reduced to purple formazan in living cells. FOCUS cells were used as a high ASPH expressing human HCC cell line. […] The MTT assay measures cellular metabolic activity via NAD(P)H-dependent cellular oxidoreductase enzymes. […] In order to evaluate the effect of long-term exposure of MO-1-1100, the colony formation assay (an assay of malignant potential and phenotype) in which cells were treated with inhibitor for 3 weeks was performed.

[3] = tested on: NIH-3T3 cells; assay: MTT assay (cell proliferation, metabolic activity); type: cell-based, mouse
Protocol: as §1

[4] = tested on: FOCUS HCC cells; assay: colony formation assay; type: cell-based, human; conditions: 1.25 μM
Protocol: as §1

[5] = tested on: FOCUS cells; assay: anchorage independent growth in soft agar; type: cell-based, human
Protocol: The effect of MO-1-1100 on anchorage independent growth in soft agar was evaluated. The ability of forming colonosphere in soft agar is considered to be a rigid test for tumorigenic potential. ASPH expression results in cells acquiring the ability to form colonospheres in soft agar. […] In order to evaluate the effect of ASPH inhibitor for anchorage independent colony formation, FOCUS cells were incubated in soft agar with or without this ASPH enzymatic inhibitor. After 3 weeks incubation, MO-1-1100 reduced colonosphere formation of FOCUS cells (FIG. 9A). […] This assay is a standard method to monitor malignant growth that reflects the ability to form tumors that grow aggressively in vivo.

[6] = tested on: FOCUS cells; assay: directional motility, Boyden chamber-type culture inserts; type: cell-based, human; conditions: 5 μM pretreatment for 24 hours, migration 30 min
Protocol: (§2) The β-hydroxylase activity is required for ASPH to mediate its effects on cell motility. Directional motility was measured using Boyden chamber-type culture inserts equipped with porous membranes. FOCUS cells were pretreated with 5 μM of MO-1-1100 and MO-1-500 β-hydroxylase inhibitor for 24 hours, and then placed into the upper chamber. Migration was allowed to proceed for 30 min. ATPLite was used to quantify viable cell density. The cells in the upper well and upper surface of membrane reflects the number of non-migrating cells, luminescence measured at the bottom surface of the membrane reflects the number of migrating and non-adherent cells and luminescence measured in the bottom well was reflect migrating and non-adherent cells. […] Cell invasiveness was assessed by invasion assay using matrigel coated membrane, in which cells were allowed to proceed for 6 hours; those found adhered on the bottom surface of membrane were regarded as invading cells.

[7] = tested on: FOCUS cells; assay: invasion assay using matrigel coated membrane; type: cell-based, human; conditions: 6 hours, compared to DMSO control
Protocol: as §2

[8] = target: T1, ASPH; assay: high throughput 14CO2 capture enzymatic assay for ASPH β-hydroxylase activity (ASPH mAb capture from lysates of treated FOCUS cells); type: biochemical; parameters: endogenous in cells; host or cells: FOCUS cells (human hepatocellular carcinoma line)
Protocol: In yet another aspect, the disclosure provides a method determining ASPH activity by contacting an EGF-like domain peptide with a detectably-labeled α-ketoglutarate and ASPH enzyme and measuring β-hydroxylase activity. In one embodiment, said α-ketoglutarate is ^14C-labelled, and wherein β-hydroxylase activity is measured by detecting liberated ^14CO2. In one embodiment, said liberated ^14CO2 is captured on a filter and radioactivity quantified. […] In one embodiment, said EGF-like domain comprises the amino acid sequence of […] (SEQ ID NO:1). In one embodiment, said EGF-like domain peptide comprises the consensus sequence of CDXXXCXXKXGNGXCDXXCNNAACXXDGXDC (SEQ ID NO: 2).
FIG. 3A is a diagram of the biochemical reaction catalyzed by ASPH derived from PC cell lysates. FIG. 3B is a cartoon illustrating the read-out to quantify ASPH activity in PC cells and tumors. FIG. 3C is an image of membrane was obtained by a phosphor-imager after a 16 hour exposure of the trapping filter to a phospho-screen. FIG. 3D is a bar graph showing intensities were calculated by Image J software and compared to a DMSO control. Vertical bars represent standard deviation. These figures show methods of measurement and data relating to ASPH catalytic activity.
EGF and EGF-like domains are well known in the art and generally include six cysteine residues which have been shown (in EGF) to be involved in disulfide bonds. The main structure is a two-stranded beta-sheet followed by a loop to a C-terminal short two-stranded sheet. Subdomains between the conserved cysteines vary in length. Examples include those described in Davis, C G, 1990, New Biol. 2(5):410-9; Blomquist et al., 1984, Proc Natl Acad Sci USA. 81(23):7363-7; Hommel et al., […], J Mol Biol. 227(1):271-82; Doolittle et al., 1984, Nature. 307(5951):558-60; Appella et al., 1988, FEBS Lett. 231(1):1-4; Sorkin A., 2001, Biochem Soc Trans. August; 29(Pt 4):480-4; each of which is hereby incorporated by reference). FIGS. 3A-C represents the strategy for development and characterization of the performance of an assay to measure ASPH enzymatic activity. FIG. 3A describes the biochemical reaction catalyzed by ASPH. FIG. 3B depicts the read-out of the assay. Protein lysates were extracted from FOCUS cells (high level of ASPH cell surface expression) treated with 1-10 μM of each parent compound for 24 hours. The lysates were added into 96 well-plates coated with ASPH monoclonal antibodies (mAbs) to add an antigen specific (ASPH) capture step to the assay design. After incubation and washing, only ASPH is captured on each well. The reaction is carried out with 60 μM of an EGF domain containing 39AA peptide, 100 μM FeCl2 and 40 μM ^14C labeled α-ketoglutarate were added into each well. The ^14CO2 was captured on a glass fiber membrane soaked in Ca(OH)2. […] The compound was further characterized for clinical use as an anti-tumor agent for PC and HCC and other ASPH-expressing tumors.

NC1=C(OS(=O)(=O)c2ccccc2)C(=O)C(c2ccc(Cl)cc2)O1 (centres unmarked) [Compound 7c, 2-(4-chlorophenyl)-4-[[phenylsulfonyl]oxy]-5-amino-3(2H)-furanone]
melting point: 190 to 195 °C

NC1=C(O)C(=O)C(c2ccc(Cl)cc2)O1 (centres unmarked) [Example 1c, 5-amino-4-hydroxy-2-(4-chlorophenyl)-furan-3-one]
melting point: 221 to 222 °C

NC1=C(O)C(=O)C(c2ccccc2F)O1 (centres unmarked) [Example 1j, 5-amino-4-hydroxy-2-(2-fluorophenyl)-furan-3-one]
melting point: 160 to 163 °C

NC1=C(O)C(=O)C(c2cccc(F)c2)O1 (centres unmarked) [Example 1k, 5-amino-4-hydroxy-2-(3-fluorophenyl)-furan-3-one]
melting point: 168 °C

NC1=C(O)C(=O)C(c2cccc(F)c2F)O1 (centres unmarked) [Example 1m, 5-amino-4-hydroxy-2-(2,3-difluorophenyl)-furan-3-one]
melting point: 193 °C

NC1=C(O)C(=O)C(c2ccc(F)cc2F)O1 (centres unmarked) [Example 1n, 5-amino-4-hydroxy-2-(2,4-difluorophenyl)-furan-3-one]
melting point: 182 to 183 °C

NC1=C(O)C(=O)C(c2cc(F)ccc2F)O1 (centres unmarked) [Example 1o, 5-amino-4-hydroxy-2-(2,5-difluorophenyl)-furan-3-one]
melting point: 196 °C

NC1=C(O)C(=O)C(c2c(F)cccc2F)O1 (centres unmarked) [Example 1p, 5-amino-4-hydroxy-2-(2,6-difluorophenyl)-furan-3-one]
melting point: 159 to 160 °C

NC1=C(O)C(=O)C(c2ccc(F)c(F)c2)O1 (centres unmarked) [Example 1q, 5-amino-4-hydroxy-2-(3,4-difluorophenyl)-furan-3-one]
melting point: 190 to 194 °C

NC1=C(O)C(=O)C(c2cc(F)cc(F)c2)O1 (centres unmarked) [Example 1r, 5-amino-4-hydroxy-2-(3,5-difluorophenyl)-furan-3-one]
melting point: 190 to 191 °C

CC(=O)OC1=C(N)OC(c2ccc(Cl)cc2)C1=O (centres unmarked) [Example 2c, 2-(4-chlorophenyl)-4-(acetoxy)-5-amino-3(2H)-furanone]
melting point: 221 to 222 °C

CCS(=O)(=O)Nc1oc(-c2ccc(Cl)cc2)c(O)c1O [MO-1-500]
ASPH binding [1]: confirmed to demonstrate ASPH binding
cell proliferation and metabolic activity [2]: striking affects; also recorded: growth inhibited
specificity for the β-hydroxylase activity of ASPH ([3]; FOCUS (express ASPH) versus NIH-3T3 (do not express ASPH)): not specific for ASPH
cell proliferation and metabolic activity ([3]; NIH-3T3 cells, micromolar concentrations): striking affects; also recorded: growth inhibited
colony formation [4]: substantial inhibitory effects; also recorded: strikingly inhibits
number of colonies formed and colony size in soft agar ([5]; 1 μM): dramatically reduced
number and size of FOCUS cell colonies in soft agar ([5]; 0.5, 1, and 5 μM): striking reduction
cell migration / motility [6]: pronounced effect
invasiveness [7]: pronounced effect
identified as hits (screening for inhibition of β-hydroxylase activity) [8]: identified as hits
ASPH enzymatic activity ([8]; 5 μM): inhibited
ASPH enzymatic inhibitory activity (β-hydroxylase) ([8]; concentration not given): inhibit
